Here are results for four compounds from article PMC5077133, “Towards Development of Small Molecule Lipid II Inhibitors as Novel Antibiotics” (PLoS ONE, 2016).

Data set [1] in a line: Lipid II binding by Surface Plasmon Resonance. As to conditions: SPR, immobilized 3-Lipid II, 25°C. As for the experimental part: Short-chain water-soluble Lipid II containing a lipid tail of three isoprene units was generated and purified essentially as described. Typically, M. flavus vesicles (120 μmol lipid-Pi) were incubated together with 500 μmol UDP-GlcNAc, 500 μmol UDP-MurNAC-pentapeptide and 400 μmol farnesyl phosphate in 100 mM Tris-HCl pH 8.0, 5 mM MgCl2. The incubation lasted two hours at room temperature for 3-P. The synthesis of 3-Lipid II was followed using RP-8 reversed phase TLC (Merck) developed in 75% methanol. For purification, the membranes were removed by centrifugation at 40,000 x g and the supernatant was collected and loaded on a C18 HPLC column and eluted with a linear gradient from 50 mM ammonium bicarbonate to 100% methanol in 30 minutes. Farnesyl-Lipid II (3-Lipid II) eluted at approximately 60% methanol. Its identity was confirmed by mass spectroscopy. Surface Plasmon Resonance binding experiments were carried out on a BIAcore T100 system (BIAcore Inc., Piscataway, NY) at 25°C. The assay buffer was 10 mM HEPES, 150 mM NaCl, 0.05% surfactant P20, pH 7.4 (± 3 mM EDTA) supplemented with 10% DMSO. 3-Lipid II (50 RUs) was immobilized on CM5 sensor chips using the amine-coupling chemistry recommended by the manufacturer. For initial determination of binding, compounds were introduced into the flow-cells (30 μl/min) in the running buffer at 10 μM. Resonance signals were corrected for nonspecific binding by subtracting the background of the control flow-cell. After each analysis, the sensor chip surfaces were regenerated with 50 mM NaOH for 30 s at a flow rate 100 μl/min, and equilibrated with the buffer prior to next injection. For binding kinetics studies, binding isotherms were analyzed with manufacturer-supplied software for BIAcore T100.

For data set [2], the system named is A. baumanii ATCC 19606. The data set can be described thus: Antibacterial activity (MIC, broth dilution). The data set is classed as cell-based, Acinetobacter baumanii. The note with it: CLSI, in µg/mL. An excerpt: Staphylococcus aureus ATCC 29213, Escherichia coli ATCC 25922, Enterococcus faecalis ATCC 29212, Streptococcus pneumonia ATCC 49619 and Acinetobacter baumanii ATCC 19606 were obtained from Microbiologics (St. Cloud, MN). E. faecalis ATCC 51575, ATCC 51299 and REMEL C99707 and E. faecium ATCC 51559 (MDR), REMEL IH79985 and REMEL C110914 were generously provided by the Laboratory of Pathology, University of Maryland Baltimore School of Medicine. Unless stated otherwise, chemicals and reagents were purchased from Sigma.
(§1) Determination of the Minimal Inhibitory Concentrations (MIC) by dilution was carried out by broth dilution according to CLSI standards.
(Broth dilution looks for growth in wells or tubes with falling amounts of substance.)

The subject of data set [3] is HeLa cells. The data set can be described thus: Cytotoxicity against mammalian cells (MTS assay). The data set is classed as cell-based. The method, then: The cytotoxicity concentration of antibacterial compounds that produces half maximal decrease in viability (CC50) against mammalian cells (HeLa, ATCC CCL-2.2) was determined as described. The effect of compounds on HeLa cell viability was assessed in triplicate by measuring the mitochondrial activity using MTS assays according to the manufacturer’s instructions (Cell Titer 96 proliferation assay, Promega). The cells were incubated for 72 hours in RPMI1640 medium containing the compounds at final concentrations ranging from 64 to 0.125 μg/ml. CC50 was determined using a standard curve of serially diluted untreated cells in each experiment.
On the technique in general: Formazan colour is commonly taken as a measure of viable cells.

In data set [4] the test system is P. aeruginosa X13273. The data set can be described thus: Antibacterial activity (MIC, broth dilution). The format is cell-based. As to conditions: CLSI, in µg/mL. The method, then:
as §1

In data set [5] the test system is K. pneumoniae NR-15410 (KPC). Kind of data set: Antibacterial activity (MIC, broth dilution). The data set is classed as cell-based. As to conditions: CLSI. As for the experimental part: as §1
Data set [6] has as its system P. aeruginosa PA01. The data set can be described thus: Antibacterial activity (MIC, broth dilution). The format is cell-based. The note with it: CLSI. The method, then:
as §1

The subject of data set [7] is E. faecium F118 (VRE). The data set can be described thus: Antibacterial activity (MIC, broth dilution). The data set is classed as cell-based. The note with it: CLSI, in µg/mL. The method, then: as §1
The subject of data set [8] is K. pneumoniae NR-15411 (KPC). Kind of data set: Antibacterial activity (MIC, broth dilution). The format is cell-based. The note with it: CLSI. The method, then:
as §1

Data set [9] relates to E. faecium EF1509 (VRE). The data set can be described thus: Antibacterial activity (MIC, broth dilution). The format is cell-based. The note with it: CLSI, in µg/mL. The method, then:
as §1

Data set [10] concerns E. cloacae ATCC 13047. The data set can be described thus: Antibacterial activity (MIC, broth dilution). As to conditions: CLSI. The format is cell-based. As for the experimental part:
as §1

Data set [11] relates to S. aureus MRSA 1094. Kind of data set: Antibacterial activity (MIC, broth dilution). The data set is classed as cell-based. The note with it: CLSI. The method, then:
as §1

The subject of data set [12] is E. aerogenes ATCC 13048. Kind of data set: Antibacterial activity (MIC, broth dilution). The data set is classed as cell-based. The note with it: CLSI. The method, then: as §1
Data set [13] deals with P. aeruginosa ATCC 27853. The data set can be described thus: Antibacterial activity (MIC, broth dilution). The note with it: CLSI. The data set is classed as cell-based. As for the experimental part:
as §1

The subject of data set [14] is S. aureus HFH-30123 (MRSA). The data set can be described thus: Antibacterial activity (MIC, broth dilution). The note with it: CLSI. The format is cell-based. As for the experimental part:
as §1

A value given as a limit tells only on which side of the number the result lay.

Turning to `Cc1cc(/C=C/c2ccc(N(C)C)cc2)cc(C)[o+]1.F[B-](F)(F)F` [6jc37], the “Lipid II binding Kd” value in [1] was “No”. The “Antibacterial activity (MIC) A. baumanii ATCC 19606” value in data set [2] was “>=64”. In addition, the “CC50% (72 h HeLa cells)” value in data set [3] is on record as 18.96. Besides, the “Antibacterial activity (MIC) P. aeruginosa X13273” value in data set [4] was “>=64”. Moreover, in [5], the Antibacterial activity (MIC) K. pneumoniae NR-15410 (KPC) is no less than 64 µg/mL. The same compound gave an Antibacterial activity (MIC) P. aeruginosa PA01 in data set [6] of no less than 64 µg/mL. In addition, the “Antibacterial activity (MIC) E. faecium F118 (VRE)” value in data set [7] worked out at 64. For the same compound, the Antibacterial activity (MIC) K. pneumoniae NR-15411 (KPC) in data set [8] is no less than 64 µg/mL. In addition, the “Antibacterial activity (MIC) E. faecium EF1509 (VRE)” value in data set [9] was 64. In addition, the Antibacterial activity (MIC) E. cloacae ATCC 13047 in data set [10] was no less than 64 µg/mL. The compound also had an Antibacterial activity (MIC) S. aureus MRSA 1094 in data set [11] of 16 µg/mL. In data set [12], this compound returned an Antibacterial activity (MIC) E. aerogenes ATCC 13048 of no less than 64 µg/mL. The Antibacterial activity (MIC) P. aeruginosa ATCC 27853 in [13] is no less than 64 µg/mL. In data set [14], the Antibacterial activity (MIC) S. aureus HFH-30123 (MRSA) came to 16 µg/mL.

For `Cc1cc(/C=C/C=C/c2ccc(N(C)C)cc2)cc(C)[o+]1.F[B-](F)(F)F` [6jc38], in data set [1], the “Lipid II binding Kd” value was “No”. The “Antibacterial activity (MIC) A. baumanii ATCC 19606” value in data set [2] was “>=64”. Moreover, in [3], the “CC50% (72 h HeLa cells)” value was greater than 32. The “Antibacterial activity (MIC) P. aeruginosa X13273” value in [4] is listed as “>=64”. This compound yielded an Antibacterial activity (MIC) K. pneumoniae NR-15410 (KPC) in [5] of no less than 64 µg/mL. In addition, in data set [6], the Antibacterial activity (MIC) P. aeruginosa PA01 was no less than 64 µg/mL. Moreover, the “Antibacterial activity (MIC) E. faecium F118 (VRE)” value in data set [7] is recorded as “>=64”. In addition, the Antibacterial activity (MIC) K. pneumoniae NR-15411 (KPC) in [8] is no less than 64 µg/mL. Also, the “Antibacterial activity (MIC) E. faecium EF1509 (VRE)” value in [9] was “>=64”. In [10], this compound showed an Antibacterial activity (MIC) E. cloacae ATCC 13047 of no less than 64 µg/mL. The compound further displayed an Antibacterial activity (MIC) S. aureus MRSA 1094 in [11] of 64 µg/mL. In data set [12], this compound came in with an Antibacterial activity (MIC) E. aerogenes ATCC 13048 of no less than 64 µg/mL. This compound also displayed an Antibacterial activity (MIC) P. aeruginosa ATCC 27853 in [13] of no less than 64 µg/mL. Besides, in data set [14], the Antibacterial activity (MIC) S. aureus HFH-30123 (MRSA) is no less than 64 µg/mL.

In general, Kd refers to the free concentration of one partner at which half of the binding sites on the other are occupied at equilibrium, for simple one-to-one binding. `CN(C)c1ccc(/C=C/c2cc(-c3ccccc3)cc(-c3ccccc3)[o+]2)cc1.F[B-](F)(F)F` [6jc39] returned a Kd in data set [1] of 39 ± 4 µM. In data set [2], the “Antibacterial activity (MIC) A. baumanii ATCC 19606” value is 16. Further, the “CC50% (72 h HeLa cells)” value in data set [3] is reported as 1.31. The “Antibacterial activity (MIC) P. aeruginosa X13273” value in [4] is on record as “>=64”. Further, the Antibacterial activity (MIC) K. pneumoniae NR-15410 (KPC) in data set [5] turned out to be 64 µg/mL. Besides, in data set [6], the Antibacterial activity (MIC) P. aeruginosa PA01 was no less than 64 µg/mL. Further, the “Antibacterial activity (MIC) E. faecium F118 (VRE)” value in data set [7] came out at 4. In [8], this compound displayed an Antibacterial activity (MIC) K. pneumoniae NR-15411 (KPC) of no less than 64 µg/mL. Besides, the “Antibacterial activity (MIC) E. faecium EF1509 (VRE)” value in data set [9] is 4. Besides, the Antibacterial activity (MIC) E. cloacae ATCC 13047 in data set [10] was no less than 64 µg/mL. In [11], the Antibacterial activity (MIC) S. aureus MRSA 1094 stood at 2 µg/mL. Further, the Antibacterial activity (MIC) E. aerogenes ATCC 13048 in [12] is no less than 64 µg/mL. Also, the Antibacterial activity (MIC) P. aeruginosa ATCC 27853 in data set [13] is no less than 64 µg/mL. For the same compound, the Antibacterial activity (MIC) S. aureus HFH-30123 (MRSA) in [14] was found to be 4 µg/mL.

As for `CN(C)c1ccc(/C=C/c2cc(-c3ccc(Cl)cc3)cc(-c3ccc(Cl)cc3)[o+]2)cc1.F[B-](F)(F)F` [6jc41-1], binding in data set [1] was characterised by a dissociation constant (Kd) of 34 ± 4 µM. For the same compound, the “Antibacterial activity (MIC) A. baumanii ATCC 19606” value in data set [2] is recorded as “>=64”. Further, in [3], the “CC50% (72 h HeLa cells)” value is recorded as greater than 32. Further, the “Antibacterial activity (MIC) P. aeruginosa X13273” value in data set [4] was “>=64”. The Antibacterial activity (MIC) K. pneumoniae NR-15410 (KPC) in data set [5] is no less than 64 µg/mL. The Antibacterial activity (MIC) P. aeruginosa PA01 in [6] is no less than 64 µg/mL. Also, in data set [7], the “Antibacterial activity (MIC) E. faecium F118 (VRE)” value came to 8. This compound yielded an Antibacterial activity (MIC) K. pneumoniae NR-15411 (KPC) in data set [8] of no less than 64 µg/mL. Also, the “Antibacterial activity (MIC) E. faecium EF1509 (VRE)” value in data set [9] came out at 22.63. The compound further registered an Antibacterial activity (MIC) E. cloacae ATCC 13047 in [10] of no less than 64 µg/mL. Besides, in [11], the Antibacterial activity (MIC) S. aureus MRSA 1094 stood at 16 µg/mL. For the same compound, in data set [12], the Antibacterial activity (MIC) E. aerogenes ATCC 13048 was no less than 64 µg/mL. This compound had an Antibacterial activity (MIC) P. aeruginosa ATCC 27853 in [13] of no less than 64 µg/mL. In addition, the Antibacterial activity (MIC) S. aureus HFH-30123 (MRSA) in data set [14] came to 32 µg/mL.
